# Results from US10633383B2, “Compounds for the treatment, alleviation or prevention of disorders associated with Tau aggregates” (AC Immune SA, priority 2018, dated 2020).
# Molecular target: T1, Tau K18 fragment (amino acids 244 to 372 of human Tau441) aggregates (Homo sapiens, UniProt P10636)
# T1 construct: encompassing amino acids 244 to 372 of the longest isoform (2N4R) of human Tau441; host or cells: bacteria
# Assay: Tau K18 disaggregation assay by ThT
# Assay type: biochemical
# Details: 2 μM K18 aggregates, 30 minutes at RT, ThT fluorescence
# Experimental: Tau K18 Disaggregation Assay by ThT
# (§1) Compounds were dissolved in anhydrous dimethyl sulfoxide (DMSO, Sigma-Aldrich) to reach a concentration of 10 mM. K18 aggregates and serial dilutions of compounds were mixed together in PBS (volume 50 μL) to a final concentration of 2 μM of K18 aggregates and from 160 to 0.04 μM of compounds. The mixture was incubated for 30 minutes at room temperature (RT), then 40 μL of this mixture were transferred into a black 384-well plate assay (Perkin-Elmer) and mixed with 10 μL of 100 μM ThT in 250 mM glycine (both from Sigma-Aldrich) in PBS. Fluorescence (relative fluorescence units; RFU) was measured in monoplicate or duplicate on a Tecan reader (excitation: 440 nm; emission: 485 nm). Percentage of K18 disaggregation was then calculated and half maximal effective concentration (EC50) was determined using GraphPad Prism version 5 (GraphPad Software) assuming a one-binding site fitting model.
# T1 sequence (P10636 561-689): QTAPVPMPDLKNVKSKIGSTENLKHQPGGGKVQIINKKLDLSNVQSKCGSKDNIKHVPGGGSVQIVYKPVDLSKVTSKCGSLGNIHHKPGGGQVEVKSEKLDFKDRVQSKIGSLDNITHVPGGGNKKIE
row,EC50,Compound
1,< 10 µM,CN(C)c1nc2ccc(N3CCc4[nH]c5ccc(F)cc5c4C3)cc2o1 [Example 13]
2,< 10 µM,CN(C)c1nc2ccc(N3CCc4c(c5cc(F)ccc5n4C)C3)cc2s1 [Example 3]
3,< 10 µM,Fc1ccc2[nH]c3c(c2c1)CN(c1ccc2sc(N4CCOCC4)nc2c1)CC3 [Example 9]
4,< 10 µM,COc1ccc2[nH]c3c(c2c1)CN(c1ccc2oc(N4CCOCC4)nc2c1)CC3 [Example 24]
5,25 to 50 µM,Cn1c2c(c3cc(F)ccc31)CN(c1ccc3nc(N4CCOCC4)oc3c1)CC2 [Example 15]
6,< 10 µM,c1cnc2oc3c(c2c1)CN(c1ccc2oc(N4CCOCC4)nc2c1)CC3 [Example 96b]
7,< 10 µM,Fc1ccc2[nH]c3c(c2c1)CN(c1cc2sc(N4CCOCC4)nc2cn1)CC3 [Example 90]
8,< 10 µM,C[C@@H]1CN(c2nc3cc(N4CCc5[nH]c6cc(F)ccc6c5C4)ccc3o2)C[C@H](C)O1 [Example 142]
9,< 10 µM,Cn1c2c(c3cc(F)ccc31)CN(c1cncc(C(F)(F)F)c1)CC2 [Example 96d]
10,< 10 µM,Fc1ccc2c3c([nH]c2c1)CCN(c1ccc(N2CCOCC2)cc1)C3 [Example 117]
11,< 10 µM,Cn1c2c(c3ccccc31)CN(c1ccc(N3CCOCC3)cn1)CC2 [Example 84]
12,< 10 µM,Cn1c2c(c3cccc(F)c31)CN(c1ccc3oc(N4CCOCC4)nc3c1)CC2 [Example 120]
13,< 10 µM,Fc1ccc2c3c([nH]c2c1)CCN(c1cnc(N2CCOCC2)cn1)C3 [Example 103]
14,< 10 µM,Fc1ccc2c3c([nH]c2c1)CCN(c1nc2cc(N4CCOCC4)ccc2s1)C3 [Example 107]
15,< 10 µM,CN(C)c1nc2cc(N3CCc4[nH]c5ccc(F)cc5c4C3)ccc2s1 [Example 11]
16,< 10 µM,COc1cc(N2CCc3[nH]c4cc(F)ccc4c3C2)ccn1 [Example 132]

# Molecular target: T2, recombinant full-length (fl)Tau (human Tau 2N4R) aggregates (Homo sapiens, UniProt P10636)
# T2 construct: 35 μM of recombinant full-length (fl)Tau in PBS were aggregated; made in house; host or cells: bacteria
# Assay: Full-length Tau (flTau) disaggregation assay by Thioflavin T (ThT)
# Assay type: biochemical
# Details: 2 μM flTau aggregates, 30 minutes at RT, ThT fluorescence
# Experimental: Full-Length Tau (flTau) Disaggregation Assay by Thioflavin T (ThT)
# as §1, with “The longest isoform of human Tau (2N4R; 441 amino acids) was expressed in bacteria and purified. For the Tau disaggregation assay by ThT, 35 μM of recombinant full-length (fl)Tau in PBS were aggregated for 24 hours at 37° C. in presence of 50 μM of heparin (Sigma-Aldrich) and 10 mM of DTT (Sigma-Aldrich) under shaking at 750 RPM. Compounds were” for “Compounds were”, “10 mM. flTau aggregates and” for “10 mM. K18 aggregates and”, “μM of flTau aggregates and” for “μM of K18 aggregates and”, “Percentage of flTau disaggregation was” for “Percentage of K18 disaggregation was”, “calculated and the half maximal” for “calculated and half maximal”
# T2 sequence (P10636 1-441 isoform P10636-8): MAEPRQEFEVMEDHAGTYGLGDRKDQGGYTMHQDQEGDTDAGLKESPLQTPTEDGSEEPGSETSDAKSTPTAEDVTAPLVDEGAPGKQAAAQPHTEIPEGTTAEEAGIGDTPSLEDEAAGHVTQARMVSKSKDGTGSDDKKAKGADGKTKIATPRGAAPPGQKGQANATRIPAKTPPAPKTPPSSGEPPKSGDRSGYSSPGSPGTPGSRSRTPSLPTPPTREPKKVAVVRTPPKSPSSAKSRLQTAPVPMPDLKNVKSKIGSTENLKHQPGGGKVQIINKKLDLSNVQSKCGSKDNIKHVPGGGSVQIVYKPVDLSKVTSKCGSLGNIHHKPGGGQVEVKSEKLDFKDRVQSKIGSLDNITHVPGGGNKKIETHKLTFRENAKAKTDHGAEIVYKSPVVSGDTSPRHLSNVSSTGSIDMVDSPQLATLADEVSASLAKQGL
row,Compound,EC50
1,COc1ccc2[nH]c3c(c2c1)CN(c1ccc2nc(N(C)C)oc2c1)CC3 [Example 40],10 to 25 µM
2,Fc1ccc2[nH]c3c(c2c1)CN(c1ccc(N2CCOCC2)nc1)CC3 [Example 74],25 to 50 µM
3,CN(C)c1nc2cc(N3CCc4c(c5ccc(F)cc5n4C)C3)ccc2o1 [Example 42],10 to 25 µM
4,COc1ccc2c(c1)c1c(n2C)CCN(c2ccc3oc(N4CCOCC4)nc3c2)C1 [Example 21],10 to 25 µM
5,COc1ccc2c(c1)c1c(n2C)CCN(c2ccc3sc(N(C)C)nc3c2)C1 [Example 32],25 to 50 µM
6,CN(C)c1nc2ccc(N3CCc4[nH]c5ccc(F)cc5c4C3)cc2o1 [Example 13],10 to 25 µM
7,CN(C)c1nc2ccc(N3CCc4c(c5cc(F)ccc5n4C)C3)cc2s1 [Example 3],10 to 25 µM
8,COc1ccc2[nH]c3c(c2c1)CN(c1ccc2nc(N4CCOCC4)oc2c1)CC3 [Example 18],10 to 25 µM
9,Cn1c2c(c3cc(F)ccc31)CN(c1ccc3sc(N4CCOCC4)nc3c1)CC2 [Example 22],25 to 50 µM
10,Cn1c2c(c3cc(F)cnc31)CN(c1ccc3nc(N4CCOCC4)oc3c1)CC2 [Example 39],25 to 50 µM
11,Fc1ccc2c3c([nH]c2c1)CCN(c1ccc2nc(N4CCOCC4)oc2c1)C3 [Example 44],10 to 25 µM
12,COc1ccc2[nH]c3c(c2c1)CN(c1ccc2oc(N4CCOCC4)nc2c1)CC3 [Example 24],25 to 50 µM
13,Fc1ccc2oc3c(c2c1)CN(c1ccc2oc(N4CCOCC4)nc2c1)CC3 [Example 49],< 10 µM
14,Fc1ccc2c3c([nH]c2c1)CCN(c1ccc2nc(N4CCOCC4)sc2c1)C3 [Example 43],< 10 µM
15,COc1ccc2[nH]c3c(c2c1)CN(c1ccc2sc(N4CCOCC4)nc2c1)CC3 [Example 23],25 to 50 µM
16,Cn1c2c(c3cc(F)ccc31)CN(c1ccc(N3CCOCC3)nc1)CC2 [Example 75],10 to 25 µM
17,COc1ccc2c(c1)c1c(n2C)CCN(c2ccc3nc(N4CCOCC4)sc3c2)C1 [Example 16],< 10 µM
18,CN(C)c1nc2cc(N3CCc4c(c5cc(F)ccc5n4C)C3)ccc2o1 [Example 29],< 10 µM

# Other lines, results leading:
row,EC50,Compound
1,< 10 µM,Cn1c2c(c3cc(F)cnc31)CN(c1ccc3oc(N4CCOCC4)nc3c1)CC2 [Example 36]
2,< 10 µM,CN(C)c1nc2cc(N3CCc4[nH]c5cc(F)ccc5c4C3)ccc2o1 [Example 56]
3,< 10 µM,Fc1ccc2c3c([nH]c2c1)CCN(c1ccc2sc(N4CCOCC4)nc2c1)C3 [Example 63]
4,< 10 µM,COc1ccc2c(c1)c1c(n2C)CCN(c2ccc3nc(N(C)C)sc3c2)C1 [Example 31]
5,< 10 µM,CN(C)c1nc2cc(N3CCc4c(c5cc(F)ccc5n4C)C3)ccc2s1 [Example 28]
6,< 10 µM,Cn1c2c(c3ccc(F)cc31)CN(c1ccc3sc(N4CCOCC4)nc3c1)CC2 [Example 61]
7,< 10 µM,Cn1c2c(c3ccc(F)cc31)CN(c1ccc3oc(N4CCOCC4)nc3c1)CC2 [Example 65]
8,< 10 µM,Cn1c2c(c3cc(F)cnc31)CN(c1ccc3nc(N4CCOCC4)sc3c1)CC2 [Example 17]
9,< 10 µM,COc1ccc2c(c1)c1c(n2C)CCN(c2ccc3nc(N(C)C)oc3c2)C1 [Example 33]
10,< 10 µM,CN(C)c1nc2ccc(N3CCc4[nH]c5cc(F)ccc5c4C3)cc2s1 [Example 54]
11,< 10 µM,CN(C)c1nc2ccc(N3CCc4c(c5cc(F)cnc5n4C)C3)cc2s1 [Example 34]
12,< 10 µM,COc1ccc2[nH]c3c(c2c1)CN(c1ccc2sc(N(C)C)nc2c1)CC3 [Example 30]
13,< 10 µM,CC(C)Nc1nc2cc(N3CCc4c(c5cc(F)ccc5n4C)C3)ccc2s1 [Example 25]
14,< 10 µM,Cn1c2c(c3ccc(F)cc31)CN(c1ccc3nc(N4CCOCC4)oc3c1)CC2 [Example 62]
15,< 10 µM,CN(C)c1nc2ccc(N3CCc4c(c5ccc(F)cc5n4C)C3)cc2s1 [Example 67]
16,< 10 µM,Fc1ccc2[nH]c3c(c2c1)CN(c1ccc2sc(N4CCOCC4)nc2c1)CC3 [Example 9]
